How the values were obtained:
[1] = system: HMC 1.1 line (containing the p.V560G mutation)
Protocol: (§1) Used in the research were four mastocyte cell lines: • HMC-1.1 containing the pV560G KIT gene mutation; • HMC-1.2 containing the pG560V and pD816V KIT gene mutations, • ROSA KIT D816V containing the pD816V KIT mutation; • ROSA KIT WT - line containing no KIT mutation [21-23].
(§2) The culture was grown in a cell incubator at the temperature of 37 °C and at 5% CO2 content, in sterile conditions in a chamber with laminar flow of sterile air. Used was Iscove's Modified Dulbecco's Medium (Merck Millipore) supplemented with 1.2 mM of α-thioglycerol, 50 mL of Foetal Bovine Serum (ATCC), and 5 mL of antibiotics (PEN./STREP. 100x, Merck Millipore)
(§3) The cells were grown for 48 hours on a 96-well plate at the concentrations 5 ×10^4 cells per well for the HMC 1.1. and HMC 1.2 lines, respectively, and at the concentration of 7.5 ×10^4 cells per well for the ROSA KIT D816V and ROSA KIT WT lines.
(§4) Then, the working 2-ME solution was diluted in 100 µL of DMSO so as to obtain the final solution concentrations of 1, 5, and 10 in 100 µL of DMSO, respectively.
(§5) The control were cells treated with the corresponding amounts of DMSO with no 2-ME added.
(§6) Following 48 hours into incubation, each well was added 50 µL of the XTT solution (Roche Diagnostics GmbH, Mannheim, Germany) prepared in accordance with the manufacturer's instructions. After 4 hours of cell incubation with XTT the level of absorbance was read using the Cytation 3 Imaging Reader (BioTek, USA) at the wavelength of 560 nm.

[2] = system: ROSA KIT WT line (without KIT gene mutation)
Protocol: as §1
(§7) The culture was grown in a cell incubator at the temperature of 37 °C and at 5% CO2 content. […] Used to grow the culture was Iscove's Modified Dulbecco's Medium (Merck Millipore) added with 50 mL of Foetal Bovine Serum (ATCC), and 5 mL of antibiotics (PEN./STREP. 100x, Merck Millipore), while the medium used for the ROSA KIT WT line was additionally supplemented with bone marrow stem cell growth factor rhSCF (R&D Systems, Minneapolis, USA) in the final concentration of 80 ng/ml.
as §3, §4, §5, §6

[3] = system: HMC 1.1 line (containing the p.V560G mutation); experiment: cells; conditions: Homo sapiens, 48 h
Protocol: as §1, §2, §3, §4, §5, §6

[4] = system: ROSA KIT WT line (without KIT gene mutation); experiment: cells; conditions: 48 h, read-out: inhibited the cell growth by
Protocol: as §1, §7, §3, §4, §5, §6

Q: For `COc1cc2c(cc1O)CC[C@@H]1[C@@H]2CC[C@]2(C)[C@@H](O)CC[C@@H]12` [2-ME, 2-methoxyestradiol], which “cytotoxicity to neoplastic MCs” value [1] is on record?
A: The value was “selectively cytotoxic”.

Q: What about the “cytotoxicity to regular MCs” value [2] of the same molecule?
A: Its value is “did not demonstrate any such activity”.

Q: What about the viability at 5 µM ([3]; read-out: cell viability, HMC 1.1 line, 5 µM, 48 hours, remaining viability vs DMSO control) of the same molecule?
A: The viability at 5 µM was 63%.

Q: What about the viability at 10 µM ([3]; read-out: cell viability, HMC 1.1 line, 10 µM, 48 hours, remaining viability vs DMSO control) of the same molecule?
A: The viability at 10 µM was 67%.

Q: And the inhibition at 1 µM ([3]; read-out: reduced proliferation of cells by)?
A: The inhibition at 1 µM was 29%.

Q: And the viability at 1 µM ([3]; read-out: viability of the cells, HMC 1.1 line, 1 µM, 48 hours, remaining viability vs DMSO control)?
A: The viability at 1 µM was 71%.

Q: What about the inhibition at 1 µM [4] of the same molecule?
A: The inhibition at 1 µM was 5%.

Q: And the inhibition at 5 µM [4]?
A: The inhibition at 5 µM was 12%.

Q: What about the inhibition at 10 µM [4] of the same molecule?
A: The inhibition at 10 µM was 14%.
